Reference: patent US8173387B2, “Method of examining chemical using gene-disrupted strain” (priority 2003, dated 2012)

Assays:
Type in all cases: cell-based, Saccharomyces cerevisiae
[1] = tested on: homozygous diploid of gene-disrupted strain DEL007 (YKL080W) transformed with a plasmid p-YBR072W; assay: promoter assay (GFP reporter), Example 3; conditions: EL007 homozygous diploid, W303 background
Text: (§1) In order to prepare a gene-disrupted strain transformation cassette, genes having chemical sensitivity; YPR036W(DEL000), YDL151C(DEL001), YGL026C(DEL003), YHR039C-A(DEL006), YKL080W(DEL007), YLR447C(DEL008), YGR006W(DEL012), YGR105W(DRL013), YJR104C(DEL014), YGL206C(DEL018), YIL036W(DEL019), YKL119C(DEL020), YLR226W(DEL022) and YLR311C(DEL025) in Table 7 were selected, and each gene was replaced with a transformation marker such as kanamycin resistance. As primers for performing PCT amplification, a N-terminal side (ORF(upper)) and a C-terminal side (ORF(lower)) in each ORF were used. A length of a sequence (ORF(upper) and ORF(lower)) of a primer homologues with ORF was 46 or 50 bp.
(§2) A W303 a mating type (ATCC200903) and a W303α mating type (ATCC201238) in which the same gene was gene disruption-manipulated were mated by a mating procedure (Yeast Gene Experimental Manual: Maruzen Co., Ltd., p 83-92) to prepare homozygous diploids. Separately, mating of a W303a mating type, and a non-gene-disrupted W303α type was performed by the similar procedure to prepare heterozygous diploids.
(§3) By such the procedure, homozygous diploids of DEL000, DEL001, DEL003, DEL006, DEL007, DEL008, DEL012, DEL013, DEL014, DEL018, DEL019, DEL020, DEL022 and DEL025 in Table 7 were prepared. In addition, heterozygous diploids in which DEL006, DEL014 and DEL 022 were mated with a non-gene-disrupted strain (hereafter, referred to as DEL006 heterozygous diploid, DEL 014 heterozygous diploid, DEL022 heterozygous diploid) and, further, a heterozygous diploid in which DEL000 and DEL014 were mated (hereafter, referred to as DEL000/014 heterozygous diploid) were prepared.
(§4) Competent cells of W303 ATCC201239 (MATa/MATα leu2-3/leu2-3 leu2-112/leu2-112 trp1-1/trp1-1 ura3-1/ura3-1 his 3-11/his3-11 his3-15/his3-15 ade2-1/ade2-1 can1-100/can1-100) which is a parent strain of gene-disrupted strains, and each of prepared gene-disrupted strains were prepared. The competent cells were transformed using two kind of prepared plasmid for promoter assay, p-YBR072W (in which GFP is connected downstream of a promoter of YBR072W) and p-YPL171C (in which GFP is connected downstream of a promoter of YPL171C).
(§5) The resulting transformant was grown to the steady state by shaking-culturing on a SD medium (adenine, hystidine, triptophan, leucine) at 25° C. The transformant in the steady state was diluted 500-fold with the same medium, shaking-cultured at 25° C. for 15 hours and, after it was confirmed that an absorbance at 600 nm was 0.2 to 0.5 as a logarithmic growth phase, chemicals having different concentrations were loaded. After loading of chemicals, fluorescence of cells which had been cultured for 4 hours was measured using a flow cytometer (FITC filter, EPICS XL-MCL, Bechmancoulter), and this was adopted as an expression amount of GFP (green fluorescence protein) which is a marker gene. A fluorescence intensity of 10000 cells was measured with a flow cytometer by one measurement and an average of fluorescence intensities of all cells was obtained, and was adopted as a measured value. Similarly, a fluorescence intensity of a cell to which a chemical had not been loaded was obtained, and results are shown as difference in a fluorescence intensity.

[2] = tested on: homozygous diploid of gene-disrupted strain DEL020 (YKL119C) transformed with a plasmid p-YBR072W; assay: promoter assay (GFP reporter), Example 3; conditions: W303 background
Text: as §1, §2, §3, §4, §5

[3] = tested on: homozygous diploid of gene-disrupted strain DEL022 (YLR226W) transformed with a plasmid p-YBR072W; assay: promoter assay (GFP reporter), Example 3; conditions: DEL022 (DEL0022) homozygous diploid, W303 background
Text: as §1, §2, §3, §4, §5

[4] = tested on: homozygous diploid of gene-disrupted strain DEL006 (YHR039C-A) transformed with a plasmid p-YBR072W; assay: promoter assay (GFP reporter), Example 3; conditions: W303 background
Text: as §1, §2, §3, §4, §5

[5] = tested on: heterozygous diploid of gene-disrupted strain DEL022 (YLR226W) transformed with a plasmid p-YBR072W; assay: promoter assay (GFP reporter), Example 3; conditions: DEL0022 heterozygous diploid, W303 background
Text: as §1, §2, §3, §4, §5

[6] = tested on: homozygous diploid of gene-disrupted strain DEL012 (YGR006W) transformed with a plasmid p-YBR072W; assay: promoter assay (GFP reporter), Example 3; conditions: W303 background
Text: as §1, §2, §3, §4, §5

[7] = tested on: homozygous diploid of gene-disrupted strain DEL013 (YGR105W) transformed with a plasmid p-YBR072W; assay: promoter assay (GFP reporter), Example 3; conditions: W303 background
Text: as §1, §2, §3, §4, §5

[8] = tested on: gene-disrupted strain DEL022 (YLR226W) transformed with a plasmid p-YBR072W; assay: promoter assay (GFP reporter), Example 2; conditions: GFP fluorescence 4 hours after loading, parent strain BY4743
Protocol: (§6) In a gene-disrupted strain, a growing rate becomes small so much, or medium components in which the strain can be grown are different in some cases, depending on a disrupted gene. Then, in the present experiment studying a host cell of a promoter assay method, in view of easy comparison with a control experiment, among gene-disrupted strains obtained as the result of Example 1, a few strains which have sensitivity to many chemicals and are grown by the same procedure as that of a parent strain were selected. Selected gene-disrupted strains are 8 strains of DEL000, DEL002, DEL011, DEL014, DEL016, DEL019, DEL022 and DEL025 in Table 7. Further, as a control, a parent strain, BY4743 was used.
(§7) A competent cell of each of a parent strain of a gene-disrupted strain and selected gene-disrupted strains was prepared. This competent cell was transformed using two kinds of prepared plasmids for promoter assay, p-YBR072W (in which GFP was connected understream of a promoter of YBR072W) and p-YPL171C (in which GFP was connected downstream of a promoter of YPL171C).
as §5, with “(histidine,” for “(adenine, hystidine, triptophan,”, “as” for “as difference in”, “intensity ratio.” for “intensity.”

[9] = tested on: gene-disrupted strain DEL019 (YIL036W) transformed with a plasmid p-YBR072W; assay: promoter assay (GFP reporter), Example 2; conditions: DEL 019, p-YBR072W, GFP fluorescence 4 hours after loading, parent strain BY4743
Protocol: as §6, §7
as §5, with “(histidine,” for “(adenine, hystidine, triptophan,”, “as” for “as difference in”, “intensity ratio.” for “intensity.”

[10] = tested on: gene-disrupted strain DEL000 (YPR036W) transformed with a plasmid p-YBR072W; assay: promoter assay (GFP reporter), Example 2; conditions: GFP fluorescence 4 hours after loading, parent strain BY4743
Protocol: as §6, §7
as §5, with “(histidine,” for “(adenine, hystidine, triptophan,”, “as” for “as difference in”, “intensity ratio.” for “intensity.”

[11] = tested on: gene-disrupted strain DEL025 (YLR311C) transformed with a plasmid p-YBR072W; assay: promoter assay (GFP reporter), Example 2; conditions: DEL025, p-YBR072W, GFP fluorescence 4 hours after loading, parent strain BY4743
Protocol: as §6, §7
as §5, with “(histidine,” for “(adenine, hystidine, triptophan,”, “as” for “as difference in”, “intensity ratio.” for “intensity.”

Compound: CCN(CC)C(=O)SCc1ccc(Cl)cc1 [benthiocarb]
- concentration at which sensitivity is shown, as fraction of a concentration of a gene-non-disrupted strain [1]: 1/10
- concentration at which sensitivity is shown, as fraction of a concentration of a gene-non-disrupted strain [2]: 1/3
- concentration at which sensitivity is shown, as fraction of a concentration of a gene-non-disrupted strain [3]: 1/10
- concentration at which sensitivity is shown, as fraction of a concentration of a gene-non-disrupted strain [4]: 1/10
- concentration at which sensitivity is shown, as fraction of a concentration of a gene-non-disrupted strain [5]: 1/3
- concentration at which sensitivity is shown, as fraction of a concentration of a gene-non-disrupted strain [6]: 1/3
- concentration at which sensitivity is shown, as fraction of a concentration of a gene-non-disrupted strain [7]: 1/3
- concentration at which the strain responded, as fraction of a concentration of a parent strain [8]: 1/10
- concentration at which the strain responded, as fraction of a concentration of a parent strain [9]: 1/100
- concentration at which the strain responded, as fraction of a concentration of a parent strain [10]: 1/3
- concentration at which the strain responded, as fraction of a concentration of a parent strain [11]: 1/3
